In patent EP0904128B1, “COMPOSITION AND SYSTEM FOR IONTOPHORETIC TRANSDERMAL DELIVERY OF DRUGS” (priority 1996, dated 1997):
Where two headings read alike, the source gives them in different places.

Columns and labels:
[1] = human, pH 7.4
Procedure: Electrodes for iontophoresis were prepared from silver wire and silver chloride (Aldrich-Chemie, Steinheim, Germany). Direct current (0,5 mA/cm^2) during iontophoresis was delivered by HP 6181C DC current source (Hewlett-Packard, Cupertino, CA) from the electrodes to the diffusion chambers via salt bridges. Salt bridges were prepared by injecting 1 M NaCl-gel (3 % agar) inside plastic tubing (diameter 4 mm, length ca. 15 cm). […] Transdermal permeation of ions increase most during iontophoresis due to electrostatic repulsion. […] Because Ag/AgCl-electrodes cause precipitation of phosphates, we used HEPES-buffer at pH 7,4 during the iontophoresis experiments. […] The chambers were connected in series as constant DC-current was used.

[2] = for Tacrine permeation Flux: Average ± standard deviation
[3] = in vivo; cited from earlier work
[4] = experiment 3; for salicylate release / permeation through epidermis: epidermis between fiber disc and phosphate buffer pH 7.4 (6 mM, µ=0.2), zero-order after lag time
Procedure: Drug release in vitro from the fiber discs at 37 °C was tested in Franz diffusion cells (Crown Glass Co. Inc., Somerville, NJ) (Fig. 3). […] The fiber discs 10 were placed in the diffusion cells so that one side of the anionic ion-exchange fiber was exposed to the dissolution medium. The dissolution medium was pH 7.4 phosphate buffer saline (PBS, 143 mM, µ=0.15 (µ = ionic strength)) in experiment 1 and pH 7.4 phosphate buffer (6 mM, µ=0.2) in experiments 2 and 3. To assess the effect of the skin on drug release (experiment 3), a piece of epidermis 13 was placed between the fiber disc and buffer solution. At fixed times, samples of 250 µl were withdrawn and the drug concentration in the samples were determined by using HPLC (Beckman System Gold, Beckman Instrument, San Ramon, CA) with a Supelcosil LC-18-DB column (5 µm, 150 x 4.6 mm) (Supelco Inc., Rohm and Haab Co., Bellefonte, PA). The mobile phase was a binary mixture of methanol (40 % v/v) and pH 7.0 phosphate buffer (60 %). The detection wavelenght was 298 nm, and the flow rate of 1.0 ml/min, the retention time was 2.6 min.

[5] = pH 7.0 phosphate buffer (200 mM) containing 6.27 g/l NaCl; donor solution 50 µg/ml; Hirvonen 1994; cited from earlier work

Row | SMILES | iontophoretic delivery compared to passive permeation from the ion-exchange fiber ([1]; 3.5 %) | lag-time of drug permeation ([1]; 5 %) | Tacrine permeation Flux ([2]; Passive permeation (3.5 % in ion-exchange fiber)) [µg/ h per cm^2] | Tacrine permeation Flux ([2]; Passive permeation (5 % solution)) [µg/ h per cm^2] | Lag-time of permeation ([2]; human, 5 %, pH 7) | Delivery of tacrine across the skin from the cationic ion-exchange fiber ([2]; passive, 3,5 % tacrine in cationic ion-exchange fiber) | Steady-state flux of tacrine across human skin in vitro ([2]; passive, 5 % solution, pH 7,4) | Clearance CL [3] | elimination half-life T1/2 [3] | peroral bioavailability [3] | salicylate release / permeation through epidermis [4] | salicylate release / permeation through epidermis ([4]; listed as Salicylate) [µg/h] | Lag time before steady state release ([4]; with skin) | in vitro permeability of anionic salicylate through skin [5]
1 | Nc1c2c(nc3ccccc13)CCCC2 [tacrine, 9-amino-1,2,3,4-tetrahydroacridine] | > 10 000 -fold | about 0,5 h | 0.003±0.0006 | 2.95±0.66 | ca. 24 h | about 0,003 g/h per cm^2 | 2,95 g/h per cm^2 | about 150 l/h | 1,4 - 3,6 h | 5 - 35% | – | – | – | –
2 | O=C([O-])c1ccccc1O.[Na+] [salicylate, Sodium salicylate] | – | – | – | – | – | – | – | – | – | – | about 0.08 µg/h | 0.08 | about 2 h | about 0.34 µg/cm^2/h
